Values after ≈ are worked out from the molar mass of the structure shown. Active and inactive are the calls of the source. No cut-off for these calls is given here.
How the values were obtained:
Staphylococcus aureus [1] = test: Antibacterial activity against Staphylococcus aureus ATCC 25923 incubated for 24 hrs by CLSI based broth microdilution assay; type: functional
Staphylococcus aureus [2] = test: Antibacterial activity against Staphylococcus aureus USA 300 incubated for 24 hrs by CLSI based broth microdilution assay; type: functional
[3] = Cmax in Sprague-Dawley rat at 15 mg/kg, po measured for 24 hrs by LC/MS analysis; type: ADME, organism-based; details: in vivo
[4] = Cmax in Sprague-Dawley rat at 5 mg/kg, iv measured for 24 hrs by LC/MS analysis; type: ADME, organism-based; details: in vivo
Staphylococcus aureus [5] = test: Antibacterial activity against TMP-resistant Staphylococcus aureus BHKS 723 incubated for 24 hrs by CLSI based broth microdilution assay; type: functional
Staphylococcus aureus [6] = test: Antibacterial activity against methicillin-resistant Staphylococcus aureus ATCC 33591 infected in C57 mouse model assessed as decrease in skin abscess at 2 to 10 mg/kg administered once a day for 3 days consecutively and measured after 24 hrs post-last dose; type: functional, organism-based; details: dose 2-10 mg/kg, time 4.0 day
Staphylococcus aureus [7] = test: Antibacterial activity against methicillin-resistant Staphylococcus aureus ATCC 33591 infected in C57 mouse model assessed as body weight recovery at 2 to 10 mg/kg administered once a day for 3 days consecutively and measured after 24 hrs post-last dose; type: functional, organism-based; details: dose 2-10 mg/kg, time 4.0 day
[8] = Acute toxicity in C57 mouse assessed as damage in liver at 800 mg/kg, po measured after 1 week by H and E staining based analysis; type: organism-based; details: in vivo, 168 h, time 1 weeks
[9] = Metabolic stability in mouse liver microsomes assessed as clearance rate at 3 uM measured for 120 mins by LC-MS/MS analysis; type: ADME, Microsome; details: 2 h
[10] = Cytotoxicity against HEK293 cells assessed as inhibition rate of cell growth at 100 uM incubated for 24 hrs by CCK8 assay relative to control; type: toxicity, cell-based; details: human
[11] = Clearance in Sprague-Dawley rat at 5 mg/kg, iv measured for 24 hrs by LC/MS analysis; type: ADME, organism-based; details: in vivo
Staphylococcus aureus [12] = test: Antibacterial activity against methicillin-resistant Staphylococcus aureus ATCC 33591 infected in C57 mouse model assessed as clear skin structure at 2 to 10 mg/kg administered once a day for 3 days consecutively and measured after 24 hrs post-last dose by H and E staining based analysis; type: functional, organism-based; details: dose 2-10 mg/kg, time 4.0 day

`CC(C)c1cc(OCC2CC2)c(I)cc1Oc1cnc(N)nc1N` gave an MIC (Staphylococcus aureus [1]) of 0.031 µg/mL (≈ 0.0704 µM), an MIC (Staphylococcus aureus [2]) of 0.031 µg/mL (≈ 0.0704 µM) and a Cmax [3] of 579 ng/mL. The Cmax [4] was 4060 ng/mL, the MIC (Staphylococcus aureus [5]) was 2 µg/mL (≈ 4.54 µM) and the Activity (Staphylococcus aureus [6]) was “Active”. The Activity (Staphylococcus aureus [7]) was “Active”, the Activity [8] was “Non-Toxic” and the CLH [9] was 4.1 µL/min/mg. For the same compound, the inhibition at 24 h, 100 µM [10] was 59.1%, the clearance [11] was 25 mL/min/kg and the Activity (Staphylococcus aureus [12]) was “Active”.
